Measurements published in ChEMBL document CHEMBL1142485, “Axial chirality and affinity at the GABA(A) receptor of pyrimido[1,2-a][1,4]benzodiazepines and related compounds” (Bioorg Med Chem, 2008).
Where “and” joins values, the source holds several entries; their conditions need not be identical. Equal entries are not always repeated.

biological target: not listed separately; experiment: Displacement of [3H]flunitrazepam from GABAA benzodiazepine receptor in rat brain membrane; assay type: cell membranes

Row | Structure (SMILES) | IC50
1 | Cc1nnc2n1-c1ccc(Cl)cc1C(c1ccccc1Cl)=NC2 [TRIAZOLAM] | 1.54 nM
2 | CN1C(=O)CN=C(c2ccccc2)c2cc(Cl)ccc21 [DIAZEPAM] | 21.2 nM
3 | Cc1cc(=O)nc2n1-c1ccc(Cl)cc1C(c1ccccc1Cl)=NC2 | 8.77 nM and 1.5 nM and 4.35 nM
4 | Cc1cc(=O)n2c(n1)CN=C(c1ccccc1)c1cc(Cl)ccc1-2 | 93.6 nM and 394 nM
5 | Clc1ccc2c(c1)C(c1ccccc1)=NCc1nncn1-2 [ESTAZOLAM] | 46.6 nM

organism: Rattus norvegicus; experiment: Displacement of [3H]flunitrazepam from GABAA benzodiazepine receptor in rat brain membrane at 10 uM; assay type: cell membranes

Row | Structure (SMILES) | Activity [%]
6 | Cc1cc(=O)nc2n1-c1ccc(Cl)cc1/C(c1ccccc1)=N\CC2 | 24
7 | Cc1cc(=O)n2c(n1)CC/N=C(/c1ccccc1)c1cc(Cl)ccc1-2 | -18
8 | Cc1cc(=O)n2c(n1)CN=C(c1ccccc1)c1cc(Cl)ccc1-2 | 17
